Assay results: patent US9822414B2, “In vitro method for predicting in vivo genotoxicity of chemical compounds” (priority 2011, dated 2017)
“And” between values parts separate entries of the source, which are not always exact repeats. Equal entries are not always repeated. “Also recorded” adds a separate entry of the source. Where two headings read alike, the source gives them in different places.

Experiments:
NR0B2 = assay: Gene expression of NR0B2 in HepG2 cells exposed to compound (microarray, log2 treatment:control ratio); assay type: cell-based, human
LOC100505880 = assay: Gene expression of LOC100131914/LOC100505880 in HepG2 cells exposed to compound (microarray, log2 treatment:control ratio); assay type: cell-based, human
HepG2 cell [1] = test system: HepG2 cell
Salmonella typhimurium = settings: cited from earlier work
rodents = settings: cited from earlier work
[2] = test system: conventional in vitro genotoxicity assays; settings: cited from earlier work
HepG2 cell [3] = assay: Class prediction of in vivo genotoxicity by the method of the invention (Ames stratification plus three-gene expression in HepG2); settings: 62 compounds, three replicates, HepG2 24 h
PWWP2B = assay: Gene expression of PWWP2B in HepG2 cells exposed to compound (microarray, log2 treatment:control ratio); assay type: cell-based, human
[4] = positive when at least one in vivo assay (MN, CA) positive, equivocal considered positive
[5] = HepG2, Ames positive compounds, per replicate, reference value −0.099
[6] = HepG2 cells, 24 h exposure, Ames positive compounds, one line per replicate of triplicate experiments
[7] = HepG2, Ames positive compounds, per replicate, reference value −0.071
[8] = HepG2, Ames positive compounds, per replicate, reference value −0.054
[9] = HepG2 cells, 24 h exposure, Ames positive compounds, one line per replicate of triplicate experiments, listed as Fu

| Compound | LOC100505880 above or below the reference value (LOC100505880) | Average result over three measurements (HepG2 cell [1]) | Ames (Salmonella typhimurium) | Standard (in vivo genotoxicity designation) (rodents; in vivo) | In vitro GTX [2] | Prediction (class prediction results using the method of the invention) (HepG2 cell [3]) | NR0B2 above or below the reference value (NR0B2) | PWWP2B above or below the reference value (PWWP2B) | In vivo GTX (rodents; [4]) | At least ⅔ genes +? (HepG2 cell [1]) | Prediction (class prediction results using the method of the invention) (HepG2 cell [1]) | In vivo GTX (rodents; in vivo) | Log2 treatment: control ratio PWWP2B (PWWP2B) | also measured |
| --- | --- | --- | --- | --- | --- | --- | --- | --- | --- | --- | --- | --- | --- | --- |
| CC(=O)Nc1cccc2c1-c1ccccc1C2 [4AAF] | − (minus sign indicates a value below the reference value) | NGTX | + | NGTX | + | NGTX+ |  |  |  |  |  |  |  | Log2 treatment: control ratio NR0B2 (NR0B2): −0.04 and −0.278 and −0.088; Log2 treatment: control ratio LOC100505880 (LOC100505880): −0.217 and −0.295 and −0.101 |
| Nc1ccc(-c2ccccc2)cc1 [ABP] |  |  |  |  |  |  | + (Plus sign indicates a value above the reference value) | + (Plus sign indicates a value above the reference value) | + |  |  |  |  |  |
| Cn1cnc([N+](=O)[O-])c1Sc1ncnc2nc[nH]c12 [AZA] |  | GTX |  | GTX | + |  |  |  |  | GTX | GTX | + |  | NR0B2 above or below the reference value (NR0B2; [5]): + (Plus sign indicates a value above the reference value); Log2 treatment: control ratio NR0B2 (NR0B2; [6]): 1.473 and 0.232 and 0.893; PWWP2B above or below the reference value (PWWP2B; [7]): + (Plus sign indicates a value above the reference value); Log2 treatment: control ratio PWWP2B (PWWP2B; [6]): 0.536 and 0.044 and −0.035; LOC100505880 above or below the reference value (LOC100505880; [8]): + (Plus sign indicates a value above the reference value); Log2 treatment: control ratio LOC100505880 (LOC100505880; [6]): 1.541 and 0.022 and 1.33; Ames (Salmonella typhimurium; Ames results based on NTP data): + |
| Nc1ccc(-c2ccc(N)cc2)cc1 [BZ] |  | GTX | + | GTX | + |  | + (key: +: Plus sign indicates a value above the reference value; −: minus sign indicates a value below the reference value) |  |  | GTX | GTX | + |  |  |
| O=P1(N(CCCl)CCCl)NCCCO1 (stereo not shown) [CP] | + (Plus sign indicates a value above the reference value) | GTX | + | GTX | + | GTX |  |  | + | GTX |  |  | 0.042 and −0.221 and 0.073 | Log2 treatment: control ratio LOC100505880 (LOC100505880): −0.031 and −0.01 and 0.139 |
| O=C(O)CCCc1ccc(N(CCCl)CCCl)cc1 [Cb] | + (Plus sign indicates a value above the reference value) | GTX | + | GTX | + | GTX | + (Plus sign indicates a value above the reference value) |  | + | GTX |  |  |  |  |
| CCN(N=O)C(N)=O [ENU] |  | GTX | + | GTX | + | GTX | + (Plus sign indicates a value above the reference value) | + (Plus sign indicates a value above the reference value) | + | GTX |  |  | 0.01 and 0.06 and 0.11 |  |
| O=c1[nH]cc(F)c(=O)[nH]1 [FU] |  | NGTX |  | GTX | + |  |  |  |  |  | NGTX+ | + |  | NR0B2 above or below the reference value (NR0B2; [5]): + (Plus sign indicates a value above the reference value); also recorded: − (minus sign indicates a value below the reference value); NR0B2 above or below the reference value (NR0B2; HepG2, Ames positive compounds, per replicate, reference value −0.099, listed as Fu): − (minus sign indicates a value below the reference value); Log2 treatment: control ratio NR0B2 (NR0B2; [6]): 0.781 and −0.197; Log2 treatment: control ratio NR0B2 (NR0B2; [9]): −0.457; PWWP2B above or below the reference value (PWWP2B; [7]): + (Plus sign indicates a value above the reference value); Log2 treatment: control ratio PWWP2B (PWWP2B; [6]): 0.256 and 0.175; Log2 treatment: control ratio PWWP2B (PWWP2B; [9]): 0.008; LOC100505880 above or below the reference value (LOC100505880; [8]): + (Plus sign indicates a value above the reference value); also recorded: − (minus sign indicates a value below the reference value); LOC100505880 above or below the reference value (LOC100505880; HepG2, Ames positive compounds, per replicate, reference value −0.054, listed as Fu): − (minus sign indicates a value below the reference value); Log2 treatment: control ratio LOC100505880 (LOC100505880; [6]): 0.583 and −0.067; Log2 treatment: control ratio LOC100505880 (LOC100505880; [9]): −0.218; Ames (Salmonella typhimurium; Ames results based on NTP data): + |
| Cn1c(N)nc2c3cccnc3ccc21 [IQ] | + (Plus sign indicates a value above the reference value) | GTX | + | GTX | + | GTX |  | + (Plus sign indicates a value above the reference value) | + | GTX |  |  | 0.188 and −0.003 and −0.052 |  |
| Nc1ccc(Cc2ccc(N)c(Cl)c2)cc1Cl [MOCA] |  |  |  | GTX | + |  | + (Plus sign indicates a value above the reference value) | + (Plus sign indicates a value above the reference value) | + |  |  |  |  |  |
| CCC1(c2ccccc2)C(=O)NC(=O)NC1=O [PhB] | − (minus sign indicates a value below the reference value) | NGTX | + | NGTX | + |  |  | − (minus sign indicates a value below the reference value) |  | NGTX | NGTX | − | −0.169 and −0.272 and −0.154 | Log2 treatment: control ratio LOC100505880 (LOC100505880): −0.154 and −0.38 and −0.303; Classification of NGTX compounds by the method of the invention (false positives) (HepG2 cell [1]): misclassification; Results in the conventional in vitro genotoxicity assays [2]: positive results |
| O=c1c(O)c(-c2ccc(O)c(O)c2)oc2cc(O)cc(O)c12 [Que] |  | NGTX |  | NGTX | + |  |  |  |  | NGTX | NGTX | − |  | NR0B2 above or below the reference value (NR0B2; [5]): − (minus sign indicates a value below the reference value); Log2 treatment: control ratio NR0B2 (NR0B2; [6]): −0.635 and −0.69 and −3.709; PWWP2B above or below the reference value (PWWP2B; [7]): − (minus sign indicates a value below the reference value); Log2 treatment: control ratio PWWP2B (PWWP2B; [6]): −0.206 and −0.437 and −0.113; Log2 treatment: control ratio LOC100505880 (LOC100505880; [6]): 0.062 and −0.337 and −0.727; Ames (Salmonella typhimurium; Ames results based on NTP data): + |
| COc1ccc(C)cc1N [pCres] |  | GTX | + | GTX | + | GTX | + (Plus sign indicates a value above the reference value) | + (Plus sign indicates a value above the reference value) | + | GTX |  |  |  |  |
